Reference: PubChem BioAssay AID2060341 (Molecular Pharmacology Branch, DTP, NCI, 2025)
Where “and” joins values, the source holds several entries; their conditions need not be identical. Equal values may be shown once. Each block holds one compound with its values, some of them ahead of it.

Tested on: 327498-153-R-J2-PDC multicell spheroid viability
Test: Anticancer human tumor 327498-153-R-J2-PDC patient-derived uterine carcinosarcoma cell line growth inhibition [IpAb]
Details: for viability, T/C: stronger effect = lower value
Method in brief: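 Multi-cell spheroids of 60% tumour cells, 25% HUVEC and 15% MSC in ultra-low-attachment U-bottom wells, treated with agents combined with ipatasertib or abemaciclib. Half-log ranges top out near clinical Cmax, or 10 microM when Cmax is unknown.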
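Also: spheroids exposed to agents for 7 days.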
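For viability, T/C in this document: 100% = DMSO vehicle control viability.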

IC50 (curve of compound): 6020 nM and 5680 nM
SMILES: CC1(C)CCC(CN2CCN(c3ccc(C(=O)NS(=O)(=O)c4ccc(NCC5CCOCC5)c([N+](=O)[O-])c4)c(Oc4cnc5[nH]ccc5c4)c3)CC2)=C(c2ccc(Cl)cc2)C1
viability, T/C (compound 0.0316 µM): 100% and 102%
viability, T/C (compound 0.1 µM): 104% and 105%
viability, T/C (compound 0.316 µM): 108% and 112%
viability, T/C (compound 1 µM): 102% and 108%
viability, T/C (compound 3.16 µM): 107% and 98.3%
viability, T/C (compound 10 µM): 7.23% and 3.16%

SMILES: COc1c(OCCCN2CCOCC2)ccc2c3n(c(=NC(=O)c4cnc(N)nc4)nc12)CCN3 + CCN1CCN(Cc2ccc(Nc3ncc(F)c(-c4cc(F)c5nc(C)n(C(C)C)c5c4)n3)nc2)CC1
IC50 (curve of first compound, second compound 0.01 µM): 63.7 nM
IC50 (curve of first compound, second compound 0.0316 µM): 32.1 nM
IC50 (curve of first compound, second compound 0.1 µM): 13.9 nM
IC50 (curve of first compound, second compound 0.316 µM): 5.63 nM
IC50 (curve of first compound, second compound 1 µM): 6.38 nM
viability, T/C (second compound 0.01 µM, first compound 0.00316 µM): 81.9%
viability, T/C (second compound 0.01 µM, first compound 0.01 µM): 78.5%
viability, T/C (second compound 0.01 µM, first compound 0.0316 µM): 70.9%
viability, T/C (second compound 0.01 µM, first compound 0.1 µM): 36.3%
viability, T/C (second compound 0.01 µM, first compound 0.316 µM): 16.8%
viability, T/C (second compound 0.01 µM, first compound 1 µM): 9.29%
viability, T/C (second compound 0.0316 µM, first compound 0.00316 µM): 70.9%
viability, T/C (second compound 0.0316 µM, first compound 0.01 µM): 60.8%
viability, T/C (second compound 0.0316 µM, first compound 0.0316 µM): 52.5%
viability, T/C (second compound 0.0316 µM, first compound 0.1 µM): 24.9%
viability, T/C (second compound 0.0316 µM, first compound 0.316 µM): 12.4%
viability, T/C (second compound 0.0316 µM, first compound 1 µM): 8.64%
viability, T/C (second compound 0.1 µM, first compound 0.00316 µM): 63%
viability, T/C (second compound 0.1 µM, first compound 0.01 µM): 55.5%
viability, T/C (second compound 0.1 µM, first compound 0.0316 µM): 37.4%
viability, T/C (second compound 0.1 µM, first compound 0.1 µM): 22.6%
viability, T/C (second compound 0.1 µM, first compound 0.316 µM): 12.3%
viability, T/C (second compound 0.1 µM, first compound 1 µM): 9.1%
viability, T/C (second compound 0.316 µM, first compound 0.00316 µM): 51.6%
viability, T/C (second compound 0.316 µM, first compound 0.01 µM): 48.6%
viability, T/C (second compound 0.316 µM, first compound 0.0316 µM): 38%
viability, T/C (second compound 0.316 µM, first compound 0.1 µM): 23.3%
viability, T/C (second compound 0.316 µM, first compound 0.316 µM): 15.3%
viability, T/C (second compound 0.316 µM, first compound 1 µM): 10.6%
viability, T/C (second compound 1 µM, first compound 0.00316 µM): 51.9%
viability, T/C (second compound 1 µM, first compound 0.01 µM): 49.2%
viability, T/C (second compound 1 µM, first compound 0.0316 µM): 39.8%
viability, T/C (second compound 1 µM, first compound 0.1 µM): 26.6%
viability, T/C (second compound 1 µM, first compound 0.316 µM): 17.7%
viability, T/C (second compound 1 µM, first compound 1 µM): 10.6%

IC50 (curve of compound): 5450 nM and 3930 nM
SMILES: Cn1nccc1Nc1nccc(-c2ccn(C(CO)c3ccc(Cl)c(F)c3)c(=O)c2)n1 (centres undefined)
viability, T/C (compound 0.0316 µM): 99.2% and 102%
viability, T/C (compound 0.1 µM): 97.9% and 90.4%
viability, T/C (compound 0.316 µM): 98.9% and 92%
viability, T/C (compound 1 µM): 83.2% and 93.5%
viability, T/C (compound 3.16 µM): 64.7% and 54.9%
viability, T/C (compound 10 µM): 34.4% and 29.1%
